Among the data in PMC12144862, “Structural Basis of Sequential Enantioselective Epoxidation by a Flavin-Dependent Monooxygenase in Lasalocid A Biosynthesis” (Angewandte Chemie (International ed. in English), 2025) are LC-MS epoxidation assay values, retold here.

The assay deals with T1, Lsd18 (Streptomyces lasalocidi, UniProt B5M9L6).
T1 construct: recombinant Lsd18 with FAD; two molecules in the asymmetric unit
The experiment in a line: LC-MS epoxidation assay. The format is biochemical. Conditions: forms mono- and bisepoxide.

T1 sequence (B5M9L6 whole entry): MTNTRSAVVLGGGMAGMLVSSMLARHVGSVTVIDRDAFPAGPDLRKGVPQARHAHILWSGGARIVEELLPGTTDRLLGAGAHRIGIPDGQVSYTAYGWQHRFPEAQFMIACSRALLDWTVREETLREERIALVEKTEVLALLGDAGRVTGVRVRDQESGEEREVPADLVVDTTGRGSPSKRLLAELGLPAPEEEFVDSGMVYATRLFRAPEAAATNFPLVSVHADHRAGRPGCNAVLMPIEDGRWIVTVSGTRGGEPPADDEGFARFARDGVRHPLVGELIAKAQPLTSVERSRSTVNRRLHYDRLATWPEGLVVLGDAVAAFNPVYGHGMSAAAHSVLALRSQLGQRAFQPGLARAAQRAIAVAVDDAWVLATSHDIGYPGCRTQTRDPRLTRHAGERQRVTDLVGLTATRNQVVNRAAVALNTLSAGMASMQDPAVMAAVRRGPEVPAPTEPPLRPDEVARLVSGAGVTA

`CC(=O)OC/C=C(\C)CC/C=C(\C)CCC=C(C)C` [farnesyl acetate]: the LC-MS epoxidation assay result is reported as “Lsd18 transforms farnesyl acetate, a natural sesquiterpene, into a bisepoxide”.
